In US8946282B2, “Indolin-2-one derivatives as protein kinase inhibitors” (Annji Pharmaceutical Co., Ltd., priority 2012, dated 2015):

Columns and labels:
[1] = target: aurora B (Homo sapiens, UniProt Q96GD4); assay: radioisotope-based P81 filter-binding assay, aurora B kinase; type: biochemical; details: averaged from two independent dose-response curves; read-out: Enzyme assay IC50 Aur B
Experimental: (§1) Compounds of formula (I)-(IV) were evaluated for abilities in inhibiting protein kinases aurora B and FLT-3 activity using radioisotope-based P81 filter-binding assay (Table 1).

[2] = target: T1, FLT-3 (Homo sapiens, UniProt P36888); assay: radioisotope-based P81 filter-binding assay, FLT-3 kinase; type: biochemical; details: averaged from two independent dose-response curves; read-out: Enzyme assay IC50 FLT-3
T1 sequence (P36888 27-993): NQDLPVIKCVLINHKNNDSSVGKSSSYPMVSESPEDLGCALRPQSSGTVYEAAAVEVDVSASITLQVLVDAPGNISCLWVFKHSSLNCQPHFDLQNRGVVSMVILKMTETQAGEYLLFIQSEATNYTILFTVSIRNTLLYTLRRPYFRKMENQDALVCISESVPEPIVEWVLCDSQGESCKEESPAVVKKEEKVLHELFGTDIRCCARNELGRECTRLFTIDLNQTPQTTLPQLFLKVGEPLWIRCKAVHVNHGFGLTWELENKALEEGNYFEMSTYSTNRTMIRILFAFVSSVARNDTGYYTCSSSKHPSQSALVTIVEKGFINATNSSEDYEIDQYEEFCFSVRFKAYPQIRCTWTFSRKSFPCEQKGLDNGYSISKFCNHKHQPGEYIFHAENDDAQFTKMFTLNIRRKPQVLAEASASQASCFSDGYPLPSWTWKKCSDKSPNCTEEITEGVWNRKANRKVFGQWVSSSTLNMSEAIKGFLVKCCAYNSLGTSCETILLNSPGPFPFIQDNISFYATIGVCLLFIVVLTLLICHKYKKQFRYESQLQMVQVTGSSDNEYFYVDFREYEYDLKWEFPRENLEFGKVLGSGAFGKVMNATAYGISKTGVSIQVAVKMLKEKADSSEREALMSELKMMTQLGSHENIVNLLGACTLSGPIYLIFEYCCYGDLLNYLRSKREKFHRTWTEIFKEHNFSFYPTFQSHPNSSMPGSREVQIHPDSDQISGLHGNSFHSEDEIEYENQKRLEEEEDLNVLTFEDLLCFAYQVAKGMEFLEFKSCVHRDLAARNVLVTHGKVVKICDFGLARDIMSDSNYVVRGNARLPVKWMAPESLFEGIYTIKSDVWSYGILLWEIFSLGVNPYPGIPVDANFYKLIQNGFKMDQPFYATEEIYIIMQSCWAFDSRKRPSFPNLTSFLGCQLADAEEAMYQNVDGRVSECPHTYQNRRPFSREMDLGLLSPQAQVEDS
Experimental: as §1

[3] = test system: HepG2 human hepatocellular carcinoma cells; assay: anti-proliferation, SRB colorimetric assay, HepG2; type: cell-based; details: concentration required for 50% growth inhibition, read-out: IC50 (μM, mean ± S.D.)
Text: HCT116 human colorectal carcinoma cells (Table 3), HepG2 human hepatocellular carcinoma cells (Table 4), and MV4-11 human acute myelomonocytic leukemia cells (Table 5).

[4] = test system: HCT116 human colorectal carcinoma cells; assay: anti-proliferation, SRB colorimetric assay, HCT116; type: cell-based; details: HCT-116, concentration required for 50% growth inhibition, read-out: IC50 (μM, mean ± S.D.)
Experimental: (§2) HCT116 human colorectal carcinoma cells (Table 3), HepG2 human hepatocellular carcinoma cells (Table 4), and MV4-11 human acute myelomonocytic leukemia cells (Table 5). Cells were treated with the test compound and the concentration required for 50% growth inhibition (IC50) determined by sulfomodamine B (SRB) colorimetric assay.

[5] = test system: A549 human lung carcinoma cells; assay: anti-proliferation, SRB colorimetric assay, A549; type: cell-based; details: concentration required for 50% growth inhibition, read-out: IC50 (μM, mean ± S.D.)
[6] = test system: MV4-11 human acute myelomonocytic leukemia cells; assay: anti-proliferation, SRB colorimetric assay, MV4-11; type: cell-based; details: concentration required for 50% growth inhibition
Experimental: as §2

[7] = test system: Huh7 cancer cell line; assay: in vivo efficacy, Huh7 xenografts in SCID mice; details: established xenografts of Huh7 cancer cell line in female SCID mice

aurora B, sequence (Q96GD4 whole entry): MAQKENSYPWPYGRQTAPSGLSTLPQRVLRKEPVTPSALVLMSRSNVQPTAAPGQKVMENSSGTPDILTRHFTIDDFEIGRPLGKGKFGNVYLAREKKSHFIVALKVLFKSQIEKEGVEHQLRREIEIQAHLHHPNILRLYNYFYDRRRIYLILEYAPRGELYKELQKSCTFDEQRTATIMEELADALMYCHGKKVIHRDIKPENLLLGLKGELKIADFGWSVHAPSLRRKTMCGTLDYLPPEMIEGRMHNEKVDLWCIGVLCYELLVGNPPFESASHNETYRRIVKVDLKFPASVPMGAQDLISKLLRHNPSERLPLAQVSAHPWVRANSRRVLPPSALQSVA

Row | Structure (SMILES) | IC50 [1] [nM] | IC50 [2] [nM] | IC50 [3] [µM] | IC50 [4] [µM] | IC50 [5] [µM] | melting point | IC50 [6] [nM] | tumor size [7]
1 | COc1ccc(C(=O)NC(=O)Nc2ccc3c(c2)NC(=O)/C3=C\c2[nH]c(C)c(C(=O)NCCN(C)C)c2C)c(F)c1 [D68] | 10.5 | 16.2 | 0.74 ± 0.07 | 0.87 ± 0.06 | 0.47 ± 0.01 |  |  | 
2 | Cc1[nH]c(/C=C2\C(=O)Nc3cc(NC(=O)NC(=O)c4ccc(F)cc4F)ccc32)c(C)c1CCC(=O)O [D56, (Z)-3-(5-((6-(3-(2,4-difluorobenzoyl)ureido]-2-oxoindolin-3-ylidene)methyl)-2,4-dimethyl-1H-pyrrol-3-yl)propanoic acid] | 2.1 | 2.7 | 0.13 ± 0.06 | 0.32 ± 0.07 | 0.1 ± 0.01 | 280 to 285 °C (dec.) |  | 
3 | O=C1Nc2cc(NC(=O)c3c[nH]cc(-c4ccccc4F)c3=O)ccc2/C1=C/c1ccc[nH]1 [D134, (Z)—N-(3-((1H-pyrrol-2-yl)methylene)-2-oxoindolin-6-yl)-4-oxo-5-(2-fluorophenyl)-1,4-dihydropyridine-3-carboxamide] | 25.5 | 100 | 0.6 ± 0.07 | 0.73 ± 0.09 | 0.46 ± 0.06 | > 300 °C | 13.2 | suppressed the tumor size
4 | O=C1Nc2cc(NC(=O)c3c[nH]cc(-c4ccc(C(F)(F)F)cc4)c3=O)ccc2/C1=C/c1ccc[nH]1 [D133] | 348 | 100 | 0.73 ± 0.03 | 0.65 ± 0.04 | 0.45 ± 0.08 | > 300 °C | 5.9 | 
5 | Cc1[nH]c(/C=C2\C(=O)Nc3cc(NC(=O)NC(=O)c4ccc(F)cc4)ccc32)c(C)c1CCC(=O)O [D55, (Z)-3-(5-((6-(3-(4-fluorobenzoyl)ureido)-2-oxoindolin-3-ylidene)methyl)-2,4-dimethyl-1H-pyrrol-3-yl)propanoic acid] | 1.8 | 45.7 | 0.21 ± 0.02 | 0.45 ± 0.02 | 0.08 ± 0.01 | > 300 °C |  | 
6 | O=C1Nc2cc(NC(=O)c3c[nH]cc(-c4cccc(Cl)c4)c3=O)ccc2/C1=C/c1ccc[nH]1 [D132, (Z)—N-(3-((1H-pyrrol-2-yl)methylene)-2-oxoindolin-6-yl)-5-(3-chlorophenyl)-4-oxo-1,4-dihydropyridine-3-carboxamide] | 161 | 148 | 0.55 ± 0.03 | 0.63 ± 0.03 | 0.5 ± 0.01 | > 300 °C | 9.1 | 
7 | O=C1Nc2cc(NC(=O)c3cccn(-c4ccc(F)cc4)c3=O)ccc2/C1=C/c1ccc[nH]1 [D107, (Z)—N-(3-((1H-pyrrol-2-yl)methylene)-2-oxoindolin-6-yl)-1-(4-fluorophenyl)-2-oxo-1,2-dihydropyridine-3-carboxamide] | 791 | 8.6 | 0.9 ± 0.2 |  | 0.7 ± 0.2 | 295 to 296 °C | 0.02 | 
8 | O=C1Nc2cc(NC(=O)c3cccn(-c4ccc(Cl)c(Cl)c4)c3=O)ccc2/C1=C/c1ccc[nH]1 [D110, (Z)—N-(3-((1H-pyrrol-2-yl)methylene)-2-oxoindolin-6-yl)-1-(3,4-dichlorophenyl)-2-oxo-1,2-dihydropyridine-3-carboxamide] | > 1000 | 59.9 | 0.82 ± 0.03 | 0.85 ± 0.13 |  |  | 2.4 | 
9 | CCN(CC)CCNC(=O)c1c(C)[nH]c(/C=C2\C(=O)Nc3cc(NC(=O)NC(=O)c4ccc(OC)cc4F)ccc32)c1C [D69, (Z)—N-(2-(diethylamino)ethyl)-5-((6-(3-(2-fluoro-4-methoxybenzoyl)ureido)-2-oxoindolin-3-ylidene)methyl)-2,4-dimethyl-1H-pyrrole-3-carboxamide] | 7.6 | 4.4 | 0.88 ± 0.04 | 0.91 ± 0.01 | 0.46 ± 0.07 | 275 to 280 °C (dec.) |  | 
10 | Cc1ccc(-c2c[nH]cc(C(=O)Nc3ccc4c(c3)NC(=O)/C4=C\c3ccc[nH]3)c2=O)cc1 [D131, (Z)—N-(3-((1H-pyrrol-2-yl)methylene)-2-oxoindolin-6-yl)-5-p-tolyl-4-oxo-1,4-dihydropyridine-3-carboxamide] | 63.2 | 74.7 | 0.71 ± 0.07 | 0.56 ± 0.03 | 0.52 ± 0.03 | > 300 °C | 18.4 | 
11 | O=C1Nc2cc(NC(=O)c3c[nH]cc(-c4ccc(Cl)cc4)c3=O)ccc2/C1=C/c1ccc[nH]1 [D130, (Z)—N-(3-((1H-pyrrol-2-yl)methylene)-2-oxoindolin-6-yl)-5-(4-chlorophenyl)-4-oxo-1,4-dihydropyridine-3-carboxamide] | 53.8 | 7.6 | 0.67 ± 0.05 | 0.57 ± 0.04 | < 0.1 | > 300 °C | 4.38 | 
12 | COc1ccc(-c2c[nH]cc(C(=O)Nc3ccc4c(c3)NC(=O)/C4=C\c3ccc[nH]3)c2=O)cc1 [D128, (Z)—N-(3-((1H-pyrrol-2-yl)methylene)-2-oxoindolin-6-yl)-5-(4-methoxyphenyl)-4-oxo-1,4-dihydropyridine-3-carboxamide] | 10.2 | 24.9 | 0.81 ± 0.04 | 0.63 ± 0.09 | 0.62 ± 0.06 | > 300 °C | 25 | 
13 | O=C1Nc2cc(NC(=O)c3c[nH]cc(-c4cc(F)cc(F)c4)c3=O)ccc2/C1=C/c1ccc[nH]1 [D136, (Z)—N-(3-((1H-pyrrol-2-yl)methylene)-2-oxoindolin-6-yl)-4-oxo-5-(3,5-difluorophenyl)-1,4-dihydropyridine-3-carboxamide] | 123 | > 1000 | 0.6 | 0.6 | 0.6 | > 300 °C |  | 
14 | O=C1Nc2cc(NC(=O)c3c[nH]cc(-c4ccc(F)cc4F)c3=O)ccc2/C1=C/c1ccc[nH]1 [D135, (Z)—N-(3-((1H-pyrrol-2-yl)methylene)-2-oxoindolin-6-yl)-4-oxo-5-(2,4-difluorophenyl)-1,4-dihydropyridine-3-carboxamide] | 64.5 | 50.1 | 0.56 ± 0.16 | 0.78 ± 0.1 | 0.59 ± 0.09 | > 300 °C | 4.25 | 
15 | Cc1[nH]c(/C=C2\C(=O)Nc3cc(NC(=O)NC(=O)c4ccccc4F)ccc32)c(C)c1CCC(=O)O [D54, (Z)-3-(5-((6-(3-(2-fluorobenzoyl)ureido)-2-oxoindolin-3-ylidene)methyl)-2,4-dimethyl-1H-pyrrol-3-yl)propanoic acid] | 1.5 | 12.4 | 0.47 ± 0.1 | 0.97 ± 0.21 | 0.11 ± 0.01 | 267 to 272 °C (dec.) |  | 
16 | COc1ccc(C(=O)NC(=O)Nc2ccc3c(c2)NC(=O)/C3=C\c2[nH]c(C)c(C(=O)NCCN3CCCC3)c2C)c(F)c1 [D70, (Z)-5-((6-(3-(2-fluoro-4-methoxybenzoyl)ureido)-2-oxoindolin-3-ylidene)methyl)-2,4-dimethyl-N-(2-(pyrrolidin-1-yl)ethyl)-1H-pyrrole-3-carboxamide] | 0.4 | 0.5 | 0.68 ± 0.03 | 0.85 ± 0.08 | 0.56 ± 0.05 |  |  | 
